Reference: patent US20250034216A1, “STEREOSELECTIVE COVALENT LIGANDS FOR ONCOGENIC AND IMMUNOLOGICAL PROTEINS” (The Scripps Research Institute, priority 2021, published 2025)

How the values were obtained:
Experiment in all cases: IA-DTB cysteine engagement
Type in all cases: binding
Details in all cases: 22Rv1 cells, 20 μM probe, 1 h, relative to DMSO
ACTL8_C197 = molecular target: T1, ACTL8_C197 (Homo sapiens, UniProt Q9H568)
T1 construct: endogenous in cells; host or cells: 22Rv1
T1 sequence (Q9H568 1-366): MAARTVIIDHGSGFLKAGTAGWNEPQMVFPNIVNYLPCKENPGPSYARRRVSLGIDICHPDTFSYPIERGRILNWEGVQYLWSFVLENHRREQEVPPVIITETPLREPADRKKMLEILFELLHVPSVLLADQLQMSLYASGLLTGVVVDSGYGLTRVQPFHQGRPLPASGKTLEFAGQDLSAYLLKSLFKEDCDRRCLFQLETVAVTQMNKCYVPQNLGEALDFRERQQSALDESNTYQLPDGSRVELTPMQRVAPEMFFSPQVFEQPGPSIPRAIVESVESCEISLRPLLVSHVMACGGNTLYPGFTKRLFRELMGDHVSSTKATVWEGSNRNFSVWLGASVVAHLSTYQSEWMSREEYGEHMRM
How it was run: (§1)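 In-situ probe treatment of cells; lysate 2 mg/mL, IA-DTB 1 h RT; MeOH/CHCl3 precipitation, DTT/iodoacetamide, trypsin; streptavidin enrichment; TMT labeling, high-pH fractionation. Ratio = TMT reporter intensity / mean DMSO channels, median-normalized.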

SRC_C280 = molecular target: T2, SRC_C280 (Homo sapiens, UniProt P12931)
T2 construct: endogenous in cells; host or cells: 22Rv1
How it was run: as §1

TMEM256-PLSCR3_C126 = molecular target: T3, TMEM256-PLSCR3_C126 (Homo sapiens, UniProt Q9NRY6)
T3 construct: endogenous in cells; host or cells: 22Rv1
How it was run: as §1

PNPLA8_C100 = molecular target: T4, PNPLA8_C100 (Homo sapiens, UniProt Q9NP80)
T4 construct: endogenous in cells; host or cells: 22Rv1
T4 sequence (Q9NP80 1-782): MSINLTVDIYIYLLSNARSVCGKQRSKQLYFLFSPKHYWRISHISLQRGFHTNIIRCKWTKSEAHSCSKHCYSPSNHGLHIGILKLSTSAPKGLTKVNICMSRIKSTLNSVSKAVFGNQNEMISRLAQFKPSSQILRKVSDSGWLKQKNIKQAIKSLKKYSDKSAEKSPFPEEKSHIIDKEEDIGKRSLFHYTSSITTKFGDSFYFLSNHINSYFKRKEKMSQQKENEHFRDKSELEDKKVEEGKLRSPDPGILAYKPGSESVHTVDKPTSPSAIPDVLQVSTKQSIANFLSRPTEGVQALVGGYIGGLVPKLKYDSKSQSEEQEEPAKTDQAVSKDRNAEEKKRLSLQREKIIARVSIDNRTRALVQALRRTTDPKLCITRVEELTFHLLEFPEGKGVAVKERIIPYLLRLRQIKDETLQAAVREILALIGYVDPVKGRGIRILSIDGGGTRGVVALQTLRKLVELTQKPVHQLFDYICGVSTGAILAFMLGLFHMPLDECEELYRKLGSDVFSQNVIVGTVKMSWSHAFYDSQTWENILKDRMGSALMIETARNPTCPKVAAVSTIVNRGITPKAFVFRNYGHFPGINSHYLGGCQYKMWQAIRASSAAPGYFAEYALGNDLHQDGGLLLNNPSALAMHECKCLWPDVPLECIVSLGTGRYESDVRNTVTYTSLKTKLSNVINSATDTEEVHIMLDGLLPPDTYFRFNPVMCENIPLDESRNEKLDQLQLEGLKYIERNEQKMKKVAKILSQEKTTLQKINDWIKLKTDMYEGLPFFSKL
How it was run: as §1

T3 sequence (Q9NRY6 whole entry): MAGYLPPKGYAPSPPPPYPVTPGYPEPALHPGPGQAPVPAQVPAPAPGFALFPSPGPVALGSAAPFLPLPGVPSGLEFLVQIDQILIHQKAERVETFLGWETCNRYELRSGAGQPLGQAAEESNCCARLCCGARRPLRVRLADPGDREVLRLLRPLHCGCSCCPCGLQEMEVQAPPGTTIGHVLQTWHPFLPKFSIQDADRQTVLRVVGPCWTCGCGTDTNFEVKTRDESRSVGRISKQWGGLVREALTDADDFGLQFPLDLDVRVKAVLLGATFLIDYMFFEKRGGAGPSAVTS
T2 sequence (P12931 whole entry): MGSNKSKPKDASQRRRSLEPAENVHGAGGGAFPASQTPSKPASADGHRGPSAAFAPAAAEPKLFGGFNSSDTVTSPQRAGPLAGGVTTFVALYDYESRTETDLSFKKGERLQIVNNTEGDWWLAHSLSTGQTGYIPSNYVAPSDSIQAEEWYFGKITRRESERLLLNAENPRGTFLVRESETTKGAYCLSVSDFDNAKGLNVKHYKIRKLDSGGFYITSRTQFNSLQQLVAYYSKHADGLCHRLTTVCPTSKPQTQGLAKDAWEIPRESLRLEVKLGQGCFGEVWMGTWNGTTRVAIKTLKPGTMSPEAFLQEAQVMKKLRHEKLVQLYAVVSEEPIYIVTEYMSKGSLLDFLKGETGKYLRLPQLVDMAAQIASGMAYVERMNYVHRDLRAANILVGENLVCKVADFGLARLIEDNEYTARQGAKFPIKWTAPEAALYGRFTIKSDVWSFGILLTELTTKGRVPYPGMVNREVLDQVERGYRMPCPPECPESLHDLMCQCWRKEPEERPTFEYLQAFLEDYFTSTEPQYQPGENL

## C=CC(=O)N1C[C@H](c2ccc(Br)cc2)[C@H]1C(=O)Nc1cccc2cccnc12 [MY-3A, (2S,3S)-1-acryloyl-3-(4-bromophenyl)-N-(quinolin-8-yl)azetidine-2-carboxamide]
ACTL8_C197
  % engagement ACTL8_C197: 3.25%
SRC_C280
  % engagement SRC_C280: 2%
TMEM256-PLSCR3_C126
  % engagement TMEM256-PLSCR3_C126: 58%
PNPLA8_C100
  % engagement PNPLA8_C100: 48%

## C=CC(=O)N1C[C@H](c2ccc(Br)cc2)[C@@H]1C(=O)Nc1cccc2cccnc12 [MY-1B, (2R,3S)-1-acryloyl-3-(4-bromophenyl)-N-(quinolin-8-yl)azetidine-2-carboxamide]
ACTL8_C197
  % engagement ACTL8_C197: 66.25%
SRC_C280
  % engagement SRC_C280: 92.25%
TMEM256-PLSCR3_C126
  % engagement TMEM256-PLSCR3_C126: 86%
PNPLA8_C100
  % engagement PNPLA8_C100: 59.5%

## C=CC(=O)N1C[C@H](c2ccc(Br)cc2)[C@H]1C(=O)Nc1cccc2cccnc12 [MY-3B, (2S,3S)-1-acryloyl-3-(4-bromophenyl)-N-(quinolin-8-yl)azetidine-2-carboxamide]
ACTL8_C197
  % engagement ACTL8_C197: 36.75%
SRC_C280
  % engagement SRC_C280: 64%
TMEM256-PLSCR3_C126
  % engagement TMEM256-PLSCR3_C126: 66%
PNPLA8_C100
  % engagement PNPLA8_C100: 70.5%

## C=CC(=O)N1C[C@@H](c2ccc(Br)cc2)[C@H]1C(=O)Nc1cccc2cccnc12 [MY-1A, (2S,3R)-1-acryloyl-3-(4-bromophenyl)-N-(quinolin-8-yl)azetidine-2-carboxamide]
ACTL8_C197
  % engagement ACTL8_C197: 14%
SRC_C280
  % engagement SRC_C280: 17.75%
TMEM256-PLSCR3_C126
  % engagement TMEM256-PLSCR3_C126: 81%
PNPLA8_C100
  % engagement PNPLA8_C100: 67%
